Results from PubChem BioAssay AID1053139 (Broad Institute, 2014).
The source made the active and inactive calls.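 The calls were made as follows: active = AC50 for cell killing below 10 µM, with the signal falling as expected; inactive = the rest, including compounds acting in the opposite direction.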

System: not listed separately
Test: HepG2 cell cytotoxicity, dose response, cytotoxicity control, ATP luminescence, dry powder, set 16 (AID 1053139)
Settings: HepG2 viability, ATP luminescence (CellTiter-Glo), 72 h; at 26 µM (top of the series)

Row | SMILES | activity change, negative = cytotoxicity
1 | CCCNC(=O)Nc1ccc2c(c1)OC[C@H](C)N(Cc1ccccc1)C[C@H](C)[C@@H](OC)CN(C)C2=O | 11.9% (inactive)
2 | CCCC(=O)Nc1ccc2c(c1)OC[C@H](C)N(Cc1ccc(-c3ccccn3)cc1)C[C@H](C)[C@@H](OC)CN(C)C2=O | 10.3% (inactive)
3 | CCCNC(=O)Nc1ccc2c(c1)OC[C@H](C)N(Cc1ccc(-c3ccccn3)cc1)C[C@H](C)[C@@H](OC)CN(C)C2=O | -4.61% (inactive)
4 | CO[C@H]1CN(C)C(=O)c2ccc(NC(=O)NC(C)C)cc2OC[C@H](C)N(Cc2ccc(-c3ccccn3)cc2)C[C@@H]1C | -5.04% (inactive)
5 | CO[C@H]1CN(C)C(=O)c2ccc(NC(=O)NC(C)C)cc2OC[C@H](C)N(Cc2ccccc2)C[C@@H]1C | 9.75% (inactive)
6 | CCCC(=O)Nc1ccc2c(c1)OC[C@H](C)N(Cc1ccccc1)C[C@H](C)[C@@H](OC)CN(C)C2=O | 6.6% (inactive)

Same assay, conditions: HepG2 viability, ATP luminescence (CellTiter-Glo), 72 h; at 50 µM (top of the series)

Row | SMILES | activity change, negative = cytotoxicity
7 | CO[C@H]1CN(C)C(=O)c2cc(NC(=O)NC(C)C)ccc2OC[C@H](C)N(C(=O)Nc2ccc(-c3ccccn3)cc2)C[C@@H]1C | -15% (inactive)
8 | CO[C@H]1CN(C)C(=O)c2cc(NC(=O)NC(C)C)ccc2OC[C@H](C)N(Cc2ccc(-c3cccnc3)cc2)C[C@@H]1C | 40.3% (inactive)
9 | CO[C@H]1CN(C)C(=O)c2cc(NC(=O)NC(C)C)ccc2OC[C@H](C)N(Cc2ccccn2)C[C@@H]1C | 1.78% (inactive)
10 | CO[C@H]1CN(C)C(=O)c2cc(Nc3c(NC4CCCCC4)c(=O)c3=O)ccc2OC[C@H](C)N(Cc2ccc(-c3ccccn3)cc2)C[C@@H]1C | -22.3% (inactive)
11 | CO[C@H]1CN(C)C(=O)c2cc(Nc3c(NC(C)C)c(=O)c3=O)ccc2OC[C@H](C)N(Cc2ccc(-c3ccccn3)cc2)C[C@@H]1C | -15.4% (inactive)
12 | CO[C@H]1CN(C)C(=O)c2cc(N)ccc2OC[C@H](C)N(Cc2ccc(-c3ccccn3)cc2)C[C@@H]1C | 19.6% (inactive)
13 | CO[C@H]1CN(C)C(=O)c2cc(Nc3c(NC4CCCC4)c(=O)c3=O)ccc2OC[C@H](C)N(Cc2ccc(-c3ccccn3)cc2)C[C@@H]1C | 6.09% (inactive)
14 | CO[C@H]1CN(C)C(=O)c2cc(Nc3ncccn3)ccc2OC[C@H](C)N(Cc2ccc(-c3ccccn3)cc2)C[C@@H]1C | 15.4% (inactive)
15 | CO[C@H]1CN(C)C(=O)c2cc(NC(=O)NC(C)C)ccc2OC[C@H](C)N(Cc2cccc(F)c2)C[C@@H]1C | -1.88% (inactive)
16 | CO[C@H]1CN(C)C(=O)c2cc(NC(=O)NC(C)C)ccc2OC[C@H](C)N(Cc2ccc(-c3ccccn3)cc2)C[C@@H]1C | -5.64% (inactive)
17 | CCC(CC)Nc1c(Nc2ccc3c(c2)C(=O)N(C)C[C@H](OC)[C@@H](C)CN(Cc2ccc(-c4ccccn4)cc2)[C@@H](C)CO3)c(=O)c1=O | -1.61% (inactive)
18 | CO[C@H]1CN(C)C(=O)c2cc(NC(=O)NC(C)C)ccc2OC[C@H](C)N(C(=O)c2ccccc2)C[C@@H]1C | -5.8% (inactive)
19 | CO[C@H]1CN(C)C(=O)c2cc(NC(=O)NC(C)C)ccc2OC[C@H](C)N(C(=O)c2ccc(-c3ccccn3)cc2)C[C@@H]1C | -10.3% (inactive)
20 | CO[C@H]1CN(C)C(=O)c2cc(NC(=O)NC(C)C)ccc2OC[C@H](C)NC[C@@H]1C | -2.2% (inactive)
21 | CO[C@H]1CN(C)C(=O)c2cc(NC(=O)NC(C)C)ccc2OC[C@H](C)N(Cc2ccccc2F)C[C@@H]1C | 12.7% (inactive)
22 | CO[C@H]1CN(C)C(=O)c2cc(NC(=O)OC(C)C)ccc2OC[C@H](C)N(Cc2ccc(-c3ccccn3)cc2)C[C@@H]1C | 12.6% (inactive)
23 | CO[C@H]1CN(C)C(=O)c2cc(NC(=O)NC(C)C)ccc2OC[C@H](C)N(Cc2cccnc2)C[C@@H]1C | 6.28% (inactive)
24 | CO[C@H]1CN(C)C(=O)c2cc(NC(=O)NC(C)C)ccc2OC[C@H](C)N(Cc2ccc(-c3ccncc3)cc2)C[C@@H]1C | -12.8% (inactive)
25 | CO[C@H]1CN(C)C(=O)c2cc(NC(=O)NC(C)C)ccc2OC[C@H](C)N(Cc2ccc(F)cc2)C[C@@H]1C | 0.295% (inactive)
26 | CO[C@H]1CN(C)C(=O)c2cc(NC(=O)NC(C)C)ccc2OC[C@H](C)N(Cc2ccncc2)C[C@@H]1C | -4.57% (inactive)

System: HepG2 viability, ATP luminescence (CellTiter-Glo), 72 h
Test: as above
Settings: not given

Row | SMILES | AC50
27 | CO[C@H]1CN(C)C(=O)c2cc(NC(=O)NC(C)C)ccc2OC[C@H](C)N(Cc2ccc(-c3cncnc3)cc2)C[C@@H]1C | > 100 µM (inactive)
28 | CO[C@H]1CN(C)C(=O)c2cc(NC(=O)NC(C)C)ccc2OC[C@H](C)N(Cc2cncnc2)C[C@@H]1C | > 100 µM (inactive)
29 | CO[C@H]1CN(C)C(=O)c2cc(NC(=O)C(C)C)ccc2OC[C@H](C)N(Cc2ccc(-c3ccccn3)cc2)C[C@@H]1C | > 24 µM (inactive)
30 | CO[C@H]1CN(C)C(=O)c2cc(Nc3c(NC4CC4)c(=O)c3=O)ccc2OC[C@H](C)N(Cc2ccc(-c3ccccn3)cc2)C[C@@H]1C | 38.4 µM
